Legend:
[1] = system: U251; assay: cell viability assay; type: cell-based, human; conditions: U251 glioblastoma, 72 h, with respect to untreated control cells
[2] = system: U87; assay: cell viability assay; type: cell-based, human; conditions: U87 glioblastoma, 72 h, with respect to untreated control cells
[3] = system: panel of NCl60 cell lines; assay: IC50 in NCI60 panel (overall); type: cell-based; conditions: Homo sapiens, general order, read-out: antitumor activity (IC50) in general
Description: (§1) On the other hand, the values of IC50 were determined in the panel of NCl60 cell lines for compound 10.
(§2) A total of 2 independent experiments were carried out with assays in triplicate for the compound and cell line. All those assays where an IC50 value was not reached in the highest concentration of 1E-05 M are represented by “>1E-05”. In these cases, the standard deviation cannot be calculated and for that reason it is calculated as “-”.

[4] = system: Jeko-1; assay: cell viability assay; type: cell-based, human
Description: The IC50 in cell viability assays were determined for some of the macrocycles prepared in Jeko-1 (B-cell lymphoma (MCL) type cells. With a total incubation period of 48 h.

[5] = system: Karpas-45; assay: cell viability assay; type: cell-based, human; conditions: Karpas-45 T-cell lymphoma, 72 h, with respect to untreated control cells
[6] = system: OVCAR-8 (Ovarian); assay: NCI60 panel IC50; type: cell-based, human
Description: as §1, §2

[7] = system: OVCAR-4 (Ovarian); assay: NCI60 panel IC50; type: cell-based, human
Description: as §1, §2

[8] = system: SK-MEL-28 (Melanoma); assay: NCI60 panel IC50; type: cell-based, human
Description: as §1, §2

[9] = system: LOX-IMVI (Melanoma); assay: NCI60 panel IC50; type: cell-based, human
Description: as §1, §2

[10] = system: HCT-15 (Colon); assay: NCI60 panel IC50; type: cell-based, human
Description: as §1, §2

[11] = system: HT-29 (Colon); assay: NCI60 panel IC50; type: cell-based, human
Description: as §1, §2

[12] = system: NCI-H522 (Lung); assay: NCI60 panel IC50; type: cell-based, human; conditions: lung NCl-H522
Description: as §1, §2

SMILES: CN1CCCNc2c(c(=O)c2=O)NCCCN(C)CCCNc2c(c(=O)c2=O)NCCCN(C)CCCNc2c(c(=O)c2=O)NCCCN(C)CCCNc2c(c(=O)c2=O)NCCCN(C)CCCNc2c(c(=O)c2=O)NCCC1 [Compound 10]
- % Cell viability [1]: 85%
- % Cell viability [2]: 25%
- IC50 [3]: 1 to 10 µM
- IC50 ([4]; Homo sapiens, JeKo-1, 48 h, cell viability, total incubation period 48 h, read-out: IC50 (μM) against Jeko-1 cells): 30.7 µM
- % Cell viability ([4]; Jeko-1 B-cell lymphoma (MCL), 48 h, with respect to untreated control cells): 46%
- % Cell viability [5]: 13%
- IC50 ([6]; Homo sapiens, OVCAR-8 (Ovarian), NCI60 panel, highest concentration 1E-05 M): > 10 µM
- sensitivity of the line to the tested compound ([6]; ovarian OVCAR-8): resistant
- IC50 ([7]; Homo sapiens, OVCAR-4 (Ovarian), NCI60 panel, highest concentration 1E-05 M): > 10 µM
- sensitivity of the line to the tested compound ([7]; ovarian OVCAR-4): resistant
- IC50 ([8]; Homo sapiens, SK-MEL-28 (Melanoma), NCI60 panel, highest concentration 1E-05 M): > 10 µM
- sensitivity of the line to the tested compound ([8]; melanoma SK-MEL-28): resistant
- IC50 ([9]; Homo sapiens, LOX-IMVI (Melanoma), NCI60 panel, highest concentration 1E-05 M): > 10 µM
- sensitivity of the line to the tested compound ([9]; melanoma LOX-IMVI): resistant
- IC50 ([10]; Homo sapiens, HCT-15 (Colon), NCI60 panel, highest concentration 1E-05 M): > 10 µM
- sensitivity of the line to the tested compound ([10]; colon HCTI5): resistant
- IC50 ([11]; Homo sapiens, HT-29 (Colon), NCI60 panel, highest concentration 1E-05 M): > 10 µM
- sensitivity of the line to the tested compound ([11]; colon HT-29): resistant
- sensitivity of the line to the tested compound [12]: resistant

From patent US20110294772A1, “USE OF CYCLOSQUARAMIDE COMPOUNDS AS ANTI-TUMOUR AGENTS” (priority 2008, published 2011)
